Results from the kinase profiling compilation of Christmann-Franck et al. (2016).

Key:
Test in all cases: KINOMEscan competition binding
Details in all cases: compound 10.0 µM
NUAK2 (human) = NUAK2 (human) (UniProt Q9H093)
NTRK1 (human) = NTRK1 (human) (UniProt P04629)
[1] = test system: RET (human), P07949 [V804M]
PIM1 (human) = PIM1 (human) (UniProt P11309)
YES1 (human) = YES1 (human) (UniProt P07947)
ROCK1 (human) = ROCK1 (human) (UniProt Q13464)
CHEK2 (human) = CHEK2 (human) (UniProt O96017)
DCLK3 (human) = DCLK3 (human) (UniProt Q9C098)
CAMK2B (human) = CAMK2B (human) (UniProt Q13554)
ULK1 (human) = ULK1 (human) (UniProt O75385)
MST1R (human) = MST1R (human) (UniProt Q04912)
FLT1 (human) = FLT1 (human) (UniProt P17948)
[2] = test system: KIT (human), P10721 [L576P]
SRPK2 (human) = SRPK2 (human) (UniProt P78362)
PLK4 (human) = PLK4 (human) (UniProt O00444)
PHKG1 (human) = PHKG1 (human) (UniProt Q16816)
EPHA5 (human) = EPHA5 (human) (UniProt P54756)
NUAK1 (human) = NUAK1 (human) (UniProt O60285)
PLK2 (human) = PLK2 (human) (UniProt Q9NYY3)
CAMKK2 (human) = CAMKK2 (human) (UniProt Q96RR4)
MELK (human) = MELK (human) (UniProt Q14680)
ROS1 (human) = ROS1 (human) (UniProt P08922)
PRKCH (human) = PRKCH (human) (UniProt P24723)
MAPK12 (human) = MAPK12 (human) (UniProt P53778)
CDK2 (human) = CDK2 (human) (UniProt P24941)
CDK17 (human) = CDK17 (human) (UniProt Q00537)
CDK16 (human) = CDK16 (human) (UniProt Q00536)
FLT3 (human) = FLT3 (human) (UniProt P36888)
NEK4 (human) = NEK4 (human) (UniProt P51957)
MINK1 (human) = MINK1 (human) (UniProt Q8N4C8)
HIPK2 (human) = HIPK2 (human) (UniProt Q9H2X6)
STK10 (human) = STK10 (human) (UniProt O94804)
MAP3K10 (human) = MAP3K10 (human) (UniProt Q02779)
PDGFRA (human) = PDGFRA (human) (UniProt P16234)
CDKL5 (human) = CDKL5 (human) (UniProt O76039)
PTK2 (human) = PTK2 (human) (UniProt Q05397)
[3] = test system: FGFR3 (human), P22607 [G697C]
LIMK1 (human) = LIMK1 (human) (UniProt P53667)
EPHB4 (human) = EPHB4 (human) (UniProt P54760)
SYK (human) = SYK (human) (UniProt P43405)
[4] = test system: FLT3 (human), P36888 [D835H]
CAMK1D (human) = CAMK1D (human) (UniProt Q8IU85)

Chain of NEK4 (human) (P51957 whole entry, looked up): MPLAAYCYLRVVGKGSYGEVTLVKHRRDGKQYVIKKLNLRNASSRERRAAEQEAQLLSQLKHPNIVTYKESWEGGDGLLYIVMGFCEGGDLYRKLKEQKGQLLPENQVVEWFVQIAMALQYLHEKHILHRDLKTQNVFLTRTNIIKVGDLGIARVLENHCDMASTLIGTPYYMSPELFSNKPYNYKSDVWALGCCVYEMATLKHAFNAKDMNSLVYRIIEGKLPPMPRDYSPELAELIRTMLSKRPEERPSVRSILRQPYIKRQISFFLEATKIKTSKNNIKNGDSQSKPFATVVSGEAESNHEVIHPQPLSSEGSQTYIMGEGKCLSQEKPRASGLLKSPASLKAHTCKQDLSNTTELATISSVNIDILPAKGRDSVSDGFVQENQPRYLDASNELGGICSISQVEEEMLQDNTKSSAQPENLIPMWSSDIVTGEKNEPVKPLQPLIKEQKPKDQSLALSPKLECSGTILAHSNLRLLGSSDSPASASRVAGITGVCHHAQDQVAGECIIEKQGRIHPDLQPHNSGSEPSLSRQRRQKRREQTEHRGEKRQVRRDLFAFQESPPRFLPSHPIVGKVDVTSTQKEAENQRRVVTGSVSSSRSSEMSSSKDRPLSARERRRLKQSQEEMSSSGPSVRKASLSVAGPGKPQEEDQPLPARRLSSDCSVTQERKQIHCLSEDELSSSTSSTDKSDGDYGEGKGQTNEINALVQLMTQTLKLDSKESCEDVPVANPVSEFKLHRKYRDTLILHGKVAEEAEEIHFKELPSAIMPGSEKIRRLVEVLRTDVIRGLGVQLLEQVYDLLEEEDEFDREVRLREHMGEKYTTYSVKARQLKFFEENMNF
Chain of MINK1 (human) (Q8N4C8 whole entry, looked up): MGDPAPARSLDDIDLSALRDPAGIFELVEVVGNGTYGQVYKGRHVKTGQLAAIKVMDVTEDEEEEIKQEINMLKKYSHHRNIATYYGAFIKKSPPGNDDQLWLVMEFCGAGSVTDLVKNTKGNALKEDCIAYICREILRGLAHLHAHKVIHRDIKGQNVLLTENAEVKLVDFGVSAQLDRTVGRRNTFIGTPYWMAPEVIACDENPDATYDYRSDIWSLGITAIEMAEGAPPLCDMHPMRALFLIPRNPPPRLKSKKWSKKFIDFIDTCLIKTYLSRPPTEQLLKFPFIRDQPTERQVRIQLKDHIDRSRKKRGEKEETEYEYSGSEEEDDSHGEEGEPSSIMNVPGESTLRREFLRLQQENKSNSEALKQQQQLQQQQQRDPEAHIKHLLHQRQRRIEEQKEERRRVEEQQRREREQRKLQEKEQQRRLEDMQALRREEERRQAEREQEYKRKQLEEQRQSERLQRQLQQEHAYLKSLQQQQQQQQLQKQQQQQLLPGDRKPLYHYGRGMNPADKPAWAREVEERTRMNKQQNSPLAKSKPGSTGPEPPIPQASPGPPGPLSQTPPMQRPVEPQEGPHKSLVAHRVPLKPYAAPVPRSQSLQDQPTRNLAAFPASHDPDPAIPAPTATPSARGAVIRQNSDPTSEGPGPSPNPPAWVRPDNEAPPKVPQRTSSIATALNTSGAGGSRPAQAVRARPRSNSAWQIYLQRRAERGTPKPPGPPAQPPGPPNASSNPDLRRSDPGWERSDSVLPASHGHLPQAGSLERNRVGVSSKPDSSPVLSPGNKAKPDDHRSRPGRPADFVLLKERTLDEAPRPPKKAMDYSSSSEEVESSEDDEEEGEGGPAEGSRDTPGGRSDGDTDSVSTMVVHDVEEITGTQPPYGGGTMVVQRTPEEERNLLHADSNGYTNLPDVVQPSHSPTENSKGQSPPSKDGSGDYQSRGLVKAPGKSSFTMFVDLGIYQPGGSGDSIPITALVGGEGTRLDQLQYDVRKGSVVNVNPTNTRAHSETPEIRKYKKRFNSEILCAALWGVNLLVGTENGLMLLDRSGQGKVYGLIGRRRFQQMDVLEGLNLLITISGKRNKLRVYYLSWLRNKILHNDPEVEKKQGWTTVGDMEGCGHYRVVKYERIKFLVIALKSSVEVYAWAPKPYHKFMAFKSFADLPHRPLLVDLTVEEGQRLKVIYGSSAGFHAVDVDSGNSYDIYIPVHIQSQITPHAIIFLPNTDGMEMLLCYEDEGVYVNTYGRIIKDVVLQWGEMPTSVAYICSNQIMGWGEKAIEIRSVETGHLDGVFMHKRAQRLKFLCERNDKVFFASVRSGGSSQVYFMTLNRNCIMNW
Chain of CDKL5 (human) (O76039 whole entry, looked up): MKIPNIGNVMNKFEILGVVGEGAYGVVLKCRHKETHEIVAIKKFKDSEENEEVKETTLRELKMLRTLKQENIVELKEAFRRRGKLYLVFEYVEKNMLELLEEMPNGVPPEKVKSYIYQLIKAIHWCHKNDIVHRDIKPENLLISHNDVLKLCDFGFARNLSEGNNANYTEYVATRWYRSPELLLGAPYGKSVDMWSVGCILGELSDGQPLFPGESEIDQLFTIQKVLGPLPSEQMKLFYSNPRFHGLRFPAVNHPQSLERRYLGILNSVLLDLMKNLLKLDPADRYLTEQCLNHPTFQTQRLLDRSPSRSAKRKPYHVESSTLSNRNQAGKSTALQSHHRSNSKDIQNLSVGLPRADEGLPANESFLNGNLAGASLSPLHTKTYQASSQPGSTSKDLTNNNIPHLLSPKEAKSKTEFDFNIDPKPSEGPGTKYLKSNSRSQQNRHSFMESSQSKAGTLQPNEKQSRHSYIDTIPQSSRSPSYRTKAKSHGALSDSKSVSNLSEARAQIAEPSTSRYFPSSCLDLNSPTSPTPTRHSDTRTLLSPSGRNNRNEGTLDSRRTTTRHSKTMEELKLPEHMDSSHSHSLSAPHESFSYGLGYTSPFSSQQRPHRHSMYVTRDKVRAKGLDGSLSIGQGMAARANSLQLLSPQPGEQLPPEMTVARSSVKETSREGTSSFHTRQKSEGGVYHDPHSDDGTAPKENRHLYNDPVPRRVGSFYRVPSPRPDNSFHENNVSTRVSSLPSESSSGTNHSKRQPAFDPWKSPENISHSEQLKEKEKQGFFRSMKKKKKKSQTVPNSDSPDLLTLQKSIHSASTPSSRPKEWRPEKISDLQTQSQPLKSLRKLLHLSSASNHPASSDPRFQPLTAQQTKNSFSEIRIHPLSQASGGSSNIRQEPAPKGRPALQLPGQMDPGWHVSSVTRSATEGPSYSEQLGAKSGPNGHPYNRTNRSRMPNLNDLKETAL
Chain of STK10 (human) (O94804 whole entry, looked up): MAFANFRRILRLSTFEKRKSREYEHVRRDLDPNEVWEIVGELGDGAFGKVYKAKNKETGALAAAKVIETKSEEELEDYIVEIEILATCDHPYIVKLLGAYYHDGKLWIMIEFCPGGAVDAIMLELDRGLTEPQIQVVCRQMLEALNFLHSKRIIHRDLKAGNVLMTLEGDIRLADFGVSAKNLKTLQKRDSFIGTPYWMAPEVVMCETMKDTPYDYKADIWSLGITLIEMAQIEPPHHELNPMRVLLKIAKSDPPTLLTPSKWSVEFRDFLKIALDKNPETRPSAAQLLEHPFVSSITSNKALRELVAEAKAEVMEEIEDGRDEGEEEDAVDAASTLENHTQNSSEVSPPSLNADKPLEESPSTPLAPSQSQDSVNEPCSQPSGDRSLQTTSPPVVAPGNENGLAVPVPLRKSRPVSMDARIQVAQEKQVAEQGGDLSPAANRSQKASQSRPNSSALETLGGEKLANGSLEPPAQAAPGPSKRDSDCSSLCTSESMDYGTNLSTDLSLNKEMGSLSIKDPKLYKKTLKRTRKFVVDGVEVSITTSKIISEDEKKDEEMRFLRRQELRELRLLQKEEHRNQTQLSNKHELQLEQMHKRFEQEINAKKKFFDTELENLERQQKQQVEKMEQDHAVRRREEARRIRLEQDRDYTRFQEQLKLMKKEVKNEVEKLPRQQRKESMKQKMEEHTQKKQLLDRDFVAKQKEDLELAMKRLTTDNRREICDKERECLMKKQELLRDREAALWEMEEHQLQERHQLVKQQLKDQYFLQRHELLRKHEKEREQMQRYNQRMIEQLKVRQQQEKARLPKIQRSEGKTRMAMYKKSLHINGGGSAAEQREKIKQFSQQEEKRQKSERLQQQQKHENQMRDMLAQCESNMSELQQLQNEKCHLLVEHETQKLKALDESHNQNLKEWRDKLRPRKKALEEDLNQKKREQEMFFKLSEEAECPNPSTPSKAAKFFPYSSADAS
Chain of PLK4 (human) (O00444 whole entry, looked up): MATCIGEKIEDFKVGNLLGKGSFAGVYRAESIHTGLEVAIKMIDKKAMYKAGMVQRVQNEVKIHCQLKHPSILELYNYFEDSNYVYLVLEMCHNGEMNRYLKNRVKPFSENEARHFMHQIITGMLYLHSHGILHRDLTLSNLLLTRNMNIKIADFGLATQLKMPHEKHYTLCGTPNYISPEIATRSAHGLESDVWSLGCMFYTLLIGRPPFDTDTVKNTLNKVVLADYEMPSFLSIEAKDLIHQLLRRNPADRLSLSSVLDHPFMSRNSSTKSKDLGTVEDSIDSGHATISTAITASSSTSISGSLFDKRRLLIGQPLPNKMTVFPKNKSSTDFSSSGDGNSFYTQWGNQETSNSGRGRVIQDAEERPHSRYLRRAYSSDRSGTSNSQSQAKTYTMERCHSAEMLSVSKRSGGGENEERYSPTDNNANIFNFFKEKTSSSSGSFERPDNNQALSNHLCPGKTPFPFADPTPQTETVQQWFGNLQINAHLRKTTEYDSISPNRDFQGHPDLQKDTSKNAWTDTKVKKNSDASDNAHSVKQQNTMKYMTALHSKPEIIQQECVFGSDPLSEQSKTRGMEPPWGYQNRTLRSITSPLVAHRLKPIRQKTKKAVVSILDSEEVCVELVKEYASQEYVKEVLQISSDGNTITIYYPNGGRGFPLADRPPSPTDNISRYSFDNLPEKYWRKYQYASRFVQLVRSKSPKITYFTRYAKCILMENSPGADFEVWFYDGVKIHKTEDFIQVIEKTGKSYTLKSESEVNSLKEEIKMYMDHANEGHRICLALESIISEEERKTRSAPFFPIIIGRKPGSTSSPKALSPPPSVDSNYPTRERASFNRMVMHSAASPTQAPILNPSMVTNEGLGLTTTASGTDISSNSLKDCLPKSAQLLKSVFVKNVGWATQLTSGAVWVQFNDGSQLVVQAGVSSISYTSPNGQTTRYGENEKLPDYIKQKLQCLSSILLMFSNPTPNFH

Cc1cc([C@@H](C)Nc2ccccc2C(=O)O)c2nc(N3CCOCC3)cc(=O)n2c1
kinase still bound, per cent of control (NUAK2 (human)): 100% | kinase still bound, per cent of control (NTRK1 (human)): 69% | kinase still bound, per cent of control [1]: 99% | kinase still bound, per cent of control (PIM1 (human)): 100% | kinase still bound, per cent of control (YES1 (human)): 100% | kinase still bound, per cent of control (ROCK1 (human)): 90% | kinase still bound, per cent of control (CHEK2 (human)): 100% | kinase still bound, per cent of control (DCLK3 (human)): 100% | kinase still bound, per cent of control (CAMK2B (human)): 89% | kinase still bound, per cent of control (ULK1 (human)): 73% | kinase still bound, per cent of control (MST1R (human)): 96% | kinase still bound, per cent of control (FLT1 (human)): 96% | kinase still bound, per cent of control [2]: 90% | kinase still bound, per cent of control (SRPK2 (human)): 88% | kinase still bound, per cent of control (PLK4 (human)): 100% | kinase still bound, per cent of control (PHKG1 (human)): 100% | kinase still bound, per cent of control (EPHA5 (human)): 100% | kinase still bound, per cent of control (NUAK1 (human)): 100% | kinase still bound, per cent of control (PLK2 (human)): 100% | kinase still bound, per cent of control (CAMKK2 (human)): 72% | kinase still bound, per cent of control (MELK (human)): 100% | kinase still bound, per cent of control (ROS1 (human)): 84% | kinase still bound, per cent of control (PRKCH (human)): 95% | kinase still bound, per cent of control (MAPK12 (human)): 82% | kinase still bound, per cent of control (CDK2 (human)): 64% | kinase still bound, per cent of control (CDK17 (human)): 100% | kinase still bound, per cent of control (CDK16 (human)): 100% | kinase still bound, per cent of control (FLT3 (human)): 4.2% | kinase still bound, per cent of control (NEK4 (human)): 94% | kinase still bound, per cent of control (MINK1 (human)): 100% | kinase still bound, per cent of control (HIPK2 (human)): 77% | kinase still bound, per cent of control (STK10 (human)): 71% | kinase still bound, per cent of control (MAP3K10 (human)): 96% | kinase still bound, per cent of control (PDGFRA (human)): 100% | kinase still bound, per cent of control (CDKL5 (human)): 82% | kinase still bound, per cent of control (PTK2 (human)): 80% | kinase still bound, per cent of control [3]: 100% | kinase still bound, per cent of control (LIMK1 (human)): 100% | kinase still bound, per cent of control (EPHB4 (human)): 95% | kinase still bound, per cent of control (SYK (human)): 90% | kinase still bound, per cent of control [4]: 32% | kinase still bound, per cent of control (CAMK1D (human)): 93%
